# According to publication PMC11742723, “The clinical-stage drug BTZ-043 accumulates in murine tuberculosis lesions and efficiently acts against Mycobacterium tuberculosis” (Nature Communications, 2025):
# Several values for one entry are separate records, joined by “and”; a condition that tells them apart may be missing. Identical values can stand only once.
# Legend:
# in vivo = conditions: IL-13tg, mouse, oral, 250 mg/kg
# [1] = Impact of γ-irradiation on BTZ-043 in spiked liver mimetic tissue cryosections; set-up: species or system mouse; conditions: for ng/mg lung tissue, technical replicate 1 / ng/mg lung tissue, technical replicate 2 / Extract concentration, technical replicate 1 / Extract concentration, technical replicate 2 / ng/mg lung tissue, Mean: BTZ-043 spiked liver homogenate section (9.7 µg/g); for Extract concentration, technical replicate 1 / Extract concentration, technical replicate 2: LC-MS/MS; for ng/mg lung tissue, Mean: mean of technical replicates
# Mtb H37Rv = assay: BTZ-043 dose escalation study in Mtb-infected BALB/c mice (pulmonary CFU); assay type: in vivo, Mycobacterium tuberculosis; conditions: for pulmonary CFU counts / mouse: individual female mice
structure (smiles),measurement,setting,value
C[C@H]1COC2(CCN(c3nc(=O)c4cc(C(F)(F)F)cc([N+](=O)[O-])c4s3)CC2)O1 [BTZ-043],concentration at 0.5 h,"in vivo; both, lung (cryosections)",1120 ± 190 ng/g
same,concentration at 2 h,"in vivo; both, lung (cryosections)",910 ± 150 ng/g
same,concentration at 8 h,"in vivo; both, lung (cryosections)",270 ng/mL
same,concentration at 4 h,"in vivo; female, lung cryosection",780 ng/g
same,concentration at 8 h,"in vivo; female, lung cryosection",260 ng/g
same,concentration at 2 h,"in vivo; female, lung cryosections",1090 ng/g
same,concentration at 2 h,"in vivo; male, lung cryosection",950 ng/g
same,concentration at 0.5 h,"in vivo; male, lung cryosections",1280 ng/g
same,concentration at 4 h,"in vivo; male, lung cryosections",1380 ng/g
same,concentration at 8 h,"in vivo; male, lung cryosections",730 ng/g
same,"ng/mg lung tissue, technical replicate 1",[1]; irradiation,5.99 ng/mg and 26 ng/mg and 6.57 ng/mg and 6.4 ng/mg and 5.5 ng/mg and 5.14 ng/mg and 5.58 ng/mg
same,"ng/mg lung tissue, technical replicate 2",[1]; irradiation,6.75 ng/mg and 23.9 ng/mg and 6.81 ng/mg and 5.4 ng/mg and 6.51 ng/mg and 6.42 ng/mg
same,"Extract concentration, technical replicate 1",[1]; irradiation,0.0193 µg/mL and 0.079 µg/mL and 0.0196 µg/mL and 0.0194 µg/mL and 0.0175 µg/mL and 0.0152 µg/mL and 0.0178 µg/mL
same,"Extract concentration, technical replicate 2",[1]; irradiation,0.0218 µg/mL and 0.0727 µg/mL and 0.0207 µg/mL and 0.0172 µg/mL and 0.0193 µg/mL and 0.0205 µg/mL
same,"ng/mg lung tissue, Mean",[1]; irradiation,6.37 ng/mg and 6.57 ng/mg and 6.6 ng/mg and 5.45 ng/mg and 5.82 ng/mg and 6 ng/mg
same,"ng/mg lung tissue, technical replicate 1",[1]; no irradiation,6.1 ng/mg and 5.48 ng/mg and 7.3 ng/mg and 4.22 ng/mg and 6.84 ng/mg and 6.88 ng/mg and 6.26 ng/mg
same,"ng/mg lung tissue, technical replicate 2",[1]; no irradiation,6.14 ng/mg and 6.24 ng/mg and 7.55 ng/mg and 4.89 ng/mg and 8.49 ng/mg and 7.42 ng/mg and 7.29 ng/mg
same,"Extract concentration, technical replicate 1",[1]; no irradiation,0.0195 µg/mL and 0.0179 µg/mL and 0.0233 µg/mL and 0.0135 µg/mL and 0.0216 µg/mL and 0.0204 µg/mL and 0.0187 µg/mL
same,"Extract concentration, technical replicate 2",[1]; no irradiation,0.0197 µg/mL and 0.0204 µg/mL and 0.0241 µg/mL and 0.0156 µg/mL and 0.0268 µg/mL and 0.0221 µg/mL and 0.0218 µg/mL
same,"ng/mg lung tissue, Mean",[1]; no irradiation,6.12 ng/mg and 5.86 ng/mg and 7.42 ng/mg and 4.56 ng/mg and 7.66 ng/mg and 7.15 ng/mg and 6.78 ng/mg
same,"Conc. (Targetlynx export, sample extract)","[1]; BTZ-043 spiked liver homogenate section, no irradiation, injections 1 and a, internal standard reserpine",1.87E-02
same,impact of γ-irradiation on the concentration and distribution of BTZ-043,"[1]; liver mimetic cryosections, 5.85 kGy",does not impact
same,"BTZ-043 concentration in liver mimetic cryosection, outlier removed","[1]; spiked liver mimetic tissue, rout method outlier",24.95 ng/mg
same,finding at necropsy,"BTZ-043 treated mice, most pronounced at the highest dose for 8 weeks",enlarged stomachs
same,health status of drug treated mice at high treatment doses,"dose escalation study, BALB/c",did not observe any indication that could point to adverse side effects
same,pulmonary CFU counts / mouse,"Mtb H37Rv; 50 mg/kg BTZ-043, 4 weeks of treatment",555882 CFU counts / mouse and 499154 CFU counts / mouse and 2156250 CFU counts / mouse and 558800 CFU counts / mouse and 525176 CFU counts / mouse and 501563 CFU counts / mouse
same,pulmonary CFU counts / mouse,"Mtb H37Rv; 50 mg/kg BTZ-043, 6 weeks of treatment",151667 CFU counts / mouse and 250364 CFU counts / mouse and 426300 CFU counts / mouse and 300706 CFU counts / mouse and 257455 CFU counts / mouse and 439714 CFU counts / mouse
same,pulmonary CFU counts / mouse,"Mtb H37Rv; 50 mg/kg BTZ-043, 8 weeks of treatment",287143 CFU counts / mouse and 182471 CFU counts / mouse and 166050 CFU counts / mouse and 110400 CFU counts / mouse and 84000 CFU counts / mouse
same,pulmonary CFU counts / mouse,"Mtb H37Rv; 100 mg/kg BTZ-043, 4 weeks of treatment",416625 CFU counts / mouse and 429231 CFU counts / mouse and 396000 CFU counts / mouse and 458571 CFU counts / mouse and 415800 CFU counts / mouse and 472500 CFU counts / mouse
same,pulmonary CFU counts / mouse,"Mtb H37Rv; 100 mg/kg BTZ-043, 6 weeks of treatment",34200 CFU counts / mouse and 61091 CFU counts / mouse and 157500 CFU counts / mouse and 207692 CFU counts / mouse and 197308 CFU counts / mouse and 173438 CFU counts / mouse
same,pulmonary CFU counts / mouse,"Mtb H37Rv; 100 mg/kg BTZ-043, 8 weeks of treatment",156000 CFU counts / mouse and 66000 CFU counts / mouse and 39129 CFU counts / mouse and 101769 CFU counts / mouse and 139765 CFU counts / mouse and 67765 CFU counts / mouse
same,pulmonary CFU counts / mouse,"Mtb H37Rv; 250 mg/kg BTZ-043, 4 weeks of treatment",634800 CFU counts / mouse and 254308 CFU counts / mouse and 513000 CFU counts / mouse and 409500 CFU counts / mouse and 484500 CFU counts / mouse and 249923 CFU counts / mouse
same,pulmonary CFU counts / mouse,"Mtb H37Rv; 250 mg/kg BTZ-043, 6 weeks of treatment",49400 CFU counts / mouse and 35888 CFU counts / mouse and 49309 CFU counts / mouse and 39877 CFU counts / mouse and 52521 CFU counts / mouse and 45750 CFU counts / mouse
same,pulmonary CFU counts / mouse,"Mtb H37Rv; 250 mg/kg BTZ-043, 8 weeks of treatment",25080 CFU counts / mouse and 15273 CFU counts / mouse and 21930 CFU counts / mouse and 15218 CFU counts / mouse and 42694 CFU counts / mouse and 15750 CFU counts / mouse
same,pulmonary CFU counts / mouse,"Mtb H37Rv; 500 mg/kg BTZ-043, 4 weeks of treatment",154286 CFU counts / mouse and 324000 CFU counts / mouse and 360000 CFU counts / mouse and 251750 CFU counts / mouse and 312857 CFU counts / mouse and 230769 CFU counts / mouse
same,pulmonary CFU counts / mouse,"Mtb H37Rv; 500 mg/kg BTZ-043, 6 weeks of treatment",54000 CFU counts / mouse and 150231 CFU counts / mouse and 60750 CFU counts / mouse and 101769 CFU counts / mouse and 56100 CFU counts / mouse and 15346 CFU counts / mouse
same,pulmonary CFU counts / mouse,"Mtb H37Rv; 500 mg/kg BTZ-043, 8 weeks of treatment",13200 CFU counts / mouse and 24750 CFU counts / mouse and 35550 CFU counts / mouse and 13714 CFU counts / mouse and 20250 CFU counts / mouse and 14657 CFU counts / mouse
same,pulmonary CFU counts / mouse,"Mtb H37Rv; 1000 mg/kg BTZ-043, 4 weeks of treatment",228000 CFU counts / mouse and 325600 CFU counts / mouse and 166909 CFU counts / mouse and 226154 CFU counts / mouse and 205800 CFU counts / mouse and 140000 CFU counts / mouse
same,pulmonary CFU counts / mouse,"Mtb H37Rv; 1000 mg/kg BTZ-043, 6 weeks of treatment",42075 CFU counts / mouse and 43131 CFU counts / mouse and 54450 CFU counts / mouse and 36450 CFU counts / mouse and 58900 CFU counts / mouse and 98571 CFU counts / mouse
same,pulmonary CFU counts / mouse,"Mtb H37Rv; 1000 mg/kg BTZ-043, 8 weeks of treatment",9208 CFU counts / mouse and 16615 CFU counts / mouse and 22100 CFU counts / mouse and 11500 CFU counts / mouse and 17738 CFU counts / mouse and 28600 CFU counts / mouse
same,reduction of bacterial burden in comparison to the vehicle control group,"Mtb H37Rv; BALB/c lungs, 4 weeks of therapy, all doses 50-1000 mg/kg/day microcrystalline BTZ-043, oral 5 days/week",> 0.7 log10 CFU
